Results from patent US12187717B2, “Compound and use thereof in treating autoimmune diseases” (PARENCHYMA BIOTECH INC., priority 2022, dated 2025).
Read-outs that look alike come from different tables or passages of the source.

What was measured:
[1] = tested on: Foxp3-expressing regulatory T cells (Treg); test: Production of Foxp3-expressing regulatory T cells from naive CD4 T cells (flow cytometry); format: cell-based, C57BL/6 mice; conditions: 3 days
Procedure: The spleen of C57BL/6 mice (8 to 12 weeks old, female) was excised, pulverized by adding RPMI medium, and then passed through a 40 μm cell strainer (BD Falcon), thereby obtaining a single cell suspension. The single cell suspension was centrifuged (1200 rpm, 5 minutes), and after discarding the supernatant, 1 ml of ACK lysis buffer was added, followed by stirring for 1 minute and then washing the same with RPMI medium. After the single cell suspension was centrifuged, T-cells were separated using a Mouse CD4 Naive T cell Enrichment Kit (Invitrogen). The separated T-cells were prepared by resuspending them in RPMI-fetal bovine serum (FBS) 10%+2-ME (mercaptoethanol) medium at 1×10^6/ml. For T-cell activation, 5 μg/ml anti-CD3 (eBioscience™) was dispensed by 100 μl onto a 96-well plate, reacted in a cell incubator (37° C., 5% CO2 incubator) for 4 hours, and washed with phosphate buffered saline to prepare the plate. The T-cells were dispensed by 200 μl onto the prepared plate, and each well was treated with 2 μg/ml of anti-CD28 (eBioscience™), 2 ng/ml of TGFβ-1 (R&D systems), and 100 U/ml of IL-2. Each 5 μl of Compounds 6 and 9 at a concentration of 2.5 μM diluted in RPMI-fetal bovine serum 10%+2-ME medium was used for treatment, followed by culturing the same in a cell incubator (37° C., 5% CO2 incubator) for 3 days. […]
In order to confirm the expression of Foxp3 protein, the recovered cells were placed in a 5 ml FACS tube (BD Falcon) and washed with 1 ml of phosphate buffered saline. […] The cells were washed twice with the Permeabilization buffer, suspended in 0.3 ml of FACS buffer, and measured by flow cytometry.
The promotion effects of Compound 6 and Comparative Example 1 on the production of “FoxP3-expressing regulatory T cells,” which play an important role in maintaining immune tolerance, were compared (FIG. 24). […] After 3 days, in order to confirm the effects of production of the regulatory T cells, the cultured cells were recovered and Foxp3 protein expression was measured in the same manner as in FIG. 4.

CYP3A4 = CYP3A4 (Homo sapiens, UniProt P08684); conditions: 2 days, 10 μM
Chain of CYP3A4 (P08684 whole entry): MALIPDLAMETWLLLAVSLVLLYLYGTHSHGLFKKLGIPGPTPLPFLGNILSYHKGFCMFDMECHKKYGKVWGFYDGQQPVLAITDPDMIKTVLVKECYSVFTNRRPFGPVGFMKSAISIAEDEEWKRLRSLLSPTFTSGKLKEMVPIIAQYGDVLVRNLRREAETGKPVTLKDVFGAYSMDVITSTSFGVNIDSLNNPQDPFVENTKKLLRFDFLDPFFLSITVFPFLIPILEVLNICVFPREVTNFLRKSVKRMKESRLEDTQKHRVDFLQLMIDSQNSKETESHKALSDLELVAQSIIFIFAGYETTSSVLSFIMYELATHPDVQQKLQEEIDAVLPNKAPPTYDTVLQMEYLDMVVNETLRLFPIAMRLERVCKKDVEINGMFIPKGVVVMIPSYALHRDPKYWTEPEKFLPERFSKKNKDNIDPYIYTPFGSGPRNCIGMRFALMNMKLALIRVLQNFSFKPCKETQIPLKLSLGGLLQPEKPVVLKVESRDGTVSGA
Procedure: Live human hepatocyte cell lines (Corning, Cat No. 454551) were collected using a plating medium, seeded on a 24-well plate so that a cell density thereof was 0.4×10^6 cells/well, and cultured for 2 to 4 hours. After replacing the plating medium with a hepatocyte culture medium, the hepatocytes were cultured for 24 hours. After culturing for 24 hours, hepatocytes were treated with Compound 6 at 1, 5, 25 µM. The medium containing the compound was changed every 24 hours for 2 days. The cultured cells were recovered to prepare mRNA samples. mRNA was extracted from the recovered cells by a phenol-chloroform sedimentation method using TRIZOL reagent (Invitrogen, Cat No. 15596018). From the isolated RNA, cDNA was synthesized by reverse transcription, followed by measuring drug metabolizing enzymes CYP1A2, CYP2C9, CYP2C19, CYP2B6, and CYP3A4 through real-time PCR analysis using the Quant Studio™ 7 Flex Real-Time PCR System (Applied Biosystems, CA). Relative values of the enzyme expression levels were compared by the ΔΔct method using GAPDH as a control enzyme. Herein, one (1) fold was set using the control. Results are expressed as % of control compared to control sample.

[2] = Pharmacokinetic parameters after oral or intravenous administration; format: in vivo; conditions: rats; for bioavailability: read-out: Bioavailability (F %); for increase of AUClast compared to Comparative Example 1 / increase of Cmax compared to Comparative Example 1: oral
Procedure: For rats, an oral administration group was fasted for 16 hours, and an intravenous administration group was subjected to intravenous administration with 10 mL/kg of solution prepared by completely dissolving Compound 6 in an ethanol-Cremophor EL mixture corresponding to 7.5% (v/v) of the administered dose, and then diluting in phosphate buffered saline so as to be the final ethanol:Cremophor EL:phosphate buffered saline (0.375:0.375:9.25, v/v/v), without fasting, at the dose concentration listed in Table 3. The oral administration group was supplied with food about 4 hours after administration. Blood collection was performed on the intravenous administration group after 0.083, 0.5, 1, 2, 4, 8, 24 hours from the administration and on the oral administration group after 0.5, 1, 2, 4, 8, 12, 24 hours from the administration, and plasma was recovered using centrifugation. In the recovered plasma, the drug concentration in the plasma was measured using UHPLC-MS/MS method.

CYP2D6 = CYP2D6 (Homo sapiens, UniProt P10635); conditions: 2 days, 10 μM
Chain of CYP2D6 (P10635 whole entry): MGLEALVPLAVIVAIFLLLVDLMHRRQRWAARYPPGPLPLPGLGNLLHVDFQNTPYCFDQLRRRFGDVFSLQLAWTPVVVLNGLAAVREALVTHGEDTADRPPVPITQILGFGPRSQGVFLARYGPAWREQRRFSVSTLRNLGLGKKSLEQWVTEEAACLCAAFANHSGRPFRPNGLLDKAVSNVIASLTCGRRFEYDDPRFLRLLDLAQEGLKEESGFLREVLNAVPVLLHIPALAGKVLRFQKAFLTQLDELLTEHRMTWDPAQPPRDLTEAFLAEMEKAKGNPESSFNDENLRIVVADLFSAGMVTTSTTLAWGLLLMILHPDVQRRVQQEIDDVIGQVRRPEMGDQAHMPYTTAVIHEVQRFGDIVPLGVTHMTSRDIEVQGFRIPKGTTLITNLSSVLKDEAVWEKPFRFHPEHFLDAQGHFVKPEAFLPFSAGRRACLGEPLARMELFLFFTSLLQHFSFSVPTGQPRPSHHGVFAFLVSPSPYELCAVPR

[3] = rat, plasma, Intravenous (IV), 1 mg/kg
[4] = rat, plasma, Oral (PO), 10 mg/kg
[5] = rat, plasma, Oral (PO), 50 mg/kg
[6] = Oral (PO), 10 mg/kg (reference dose, dose ratio 1)
[7] = Oral (PO), 50 mg/kg relative to 10 mg/kg (dose ratio 5)
[8] = 10 mg/kg vs Comparative Example 1 at 10 mg/kg
[9] = 50 mg/kg vs Comparative Example 1 at 100 mg/kg

CYP3A4 activity (CYP3A4): 85.7 % of Control Activity
AUC(0-t) [2, 3]: 1160 ng·h/mL
C0 [2, 3]: 1420 ng/mL
clearance [2, 3]: 14.4 mL/min/kg
half-life [2, 3]: 1.04 h
Vd ([2]; rat, plasma, Intravenous (IV), 1 mg/kg, read-out: Vdss): 0.924 L/kg
AUC(0-t) [2, 4]: 4350 ng·h/mL
Cmax [2, 4]: 742 ng/mL
Tmax [2, 4]: 2 h
half-life [2, 4]: 2 h
bioavailability [2, 4]: 37.3%
AUC(0-t) [2, 5]: 43100 ng·h/mL
Cmax [2, 5]: 4590 ng/mL
Tmax [2, 5]: 4 h
half-life [2, 5]: 3.83 h
bioavailability [2, 5]: 73.9%
AUClast Ratio [2, 6]: 1.0
Cmax ratio [2, 6]: 1.0
AUClast Ratio [2, 7]: 9.9
Cmax ratio [2, 7]: 6.2
increase of AUClast compared to Comparative Example 1 [2, 8]: 5.9 times
increase of Cmax compared to Comparative Example 1 [2, 8]: 11.9 times
increase of AUClast compared to Comparative Example 1 [2, 9]: 66.8 times
increase of Cmax compared to Comparative Example 1 [2, 9]: 30.2 times
CYP2D6 activity (CYP2D6): 101.2 % of Control Activity
SMILES: O=C(Cc1c[nH]c2ccc(Cl)cc12)Nc1nc2ccc(N3CCOCC3)cc2s1 [Compound 6, 2-(5-chloro-1H-indol-3-yl)-N-(6-morpholinobenzo[d]thiazol-2-yl)acetamide]
production of Foxp3-expressing regulatory T cells ([1]; 2.5 μM and 5 μM, compared to Comparative Example 1): significantly increased
production of Foxp3-expressing regulatory T cells ([1]; 2.5 μM, compared to Vehicle): markedly increased
